In US12187713B2, “Immunomodulators, compositions and methods thereof” (Betta Pharmaceuticals Co., Ltd, priority 2019, dated 2025):

Tests used:
[1] = Pharmacokinetic Assay, single oral dose 100 mg/kg (Table 11); assay type: in vivo; conditions: mouse, C57 female mice, oral (intragastric), plasma
Experimental: Adult C57 female mice were received to single-dose of the test compounds with […], 10% Kolliphor^@HS 15 and 80% saline as excipients, the mice (n=9) were giving oral administration (intragastric administration) with the compounds at a dose of 100 mg/kg. Time of blood collection: 15 min, 30 min, 1 h, 2 h, 4 h, 7 h, 24 h. Approximately 0.1 mL of whole blood was collected from retro-orbital venous plexus of 3 mice at each time point, and placed into tubes that contained K2-EDTA as an anticoagulant. The whole blood was centrifuged at 4° C. and 4000 rpm for 10 min. The plasma was transferred into centrifuge tubes, and stored at −20° C. until being analyzed. Concentrations of test compounds in the plasma samples were analyzed with liquid chromatography-tandem mass spectrometry (LC-MS/MS). Plasma concentration-time data of individual animals was analyzed using Microsoft Excel 2010. Non-compartmental model was introduced in concentration analysis. The pharmacokinetic parameters of the test compounds were calculated using WinNonlin (version 4.1; Pharsight) software.

PD-1/PD-L1 = PD-1/PD-L1 (Homo sapiens (Human), UniProt Q9NZQ7); assay: PD-1/PD-L1 Binding Assay (Alphascreen)
Procedure, shortened: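 PD-1/PD-L1 binding detected by anti-6×His acceptor and streptavidin donor beads after 120 min in the dark at 25 °C. Beforehand, the two proteins were incubated 15 min at 25 °C with inhibitor at 0.015–300 nM (1% DMSO). IC50 comes from a log concentration–response curve.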

Chain of PD-1/PD-L1 (Q9NZQ7 19-238): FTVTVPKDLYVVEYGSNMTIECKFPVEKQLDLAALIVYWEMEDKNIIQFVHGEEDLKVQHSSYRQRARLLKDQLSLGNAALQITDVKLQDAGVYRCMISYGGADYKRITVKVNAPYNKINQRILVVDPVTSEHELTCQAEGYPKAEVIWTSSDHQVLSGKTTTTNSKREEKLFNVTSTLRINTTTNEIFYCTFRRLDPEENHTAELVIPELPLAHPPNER

Row | SMILES | AUC [1] [µg·h/mL] | Cmax [1] [ng/mL] | Tmax [1] [h] | half-life [1] [h] | IC50 (PD-1/PD-L1; numeric values) [nM] | IC50 (PD-1/PD-L1; range symbols) [nM]
1 | Cc1c(-c2nc3cc(CN4CCC4C)c(OC(F)F)cc3o2)cccc1-c1cccc(-c2nc3cc(CN4CCC[C@H]4C(=O)O)c(OC(F)F)cc3o2)c1C (stereo partly drawn) [Example 36, ((6-(difluoromethoxy)-2-(3′-(6-(difluoromethoxy)-5-((2-methylazetidin-1-yl)methyl)benzo[d]oxazol-2-yl)-2,2′-dimethyl-[1,1′-biphenyl]-3-yl)benzo[d]oxazol-5-yl)methyl)-L-proline] | 21.4 | 1670 | 1 | 8.26 | 1.1 | –
2 | Cc1c(-c2nc3cc(CN4CCC(C)C4)c(OC(F)F)cc3o2)cccc1-c1cccc(-c2nc3cc(CN4CCC[C@H]4C(=O)O)c(OC(F)F)cc3o2)c1C (stereo partly drawn) [Example 61, ((6-(difluoromethoxy)-2-(3′-(6-(difluoromethoxy)-5-((3-methylpyrrolidin-1-yl)methyl)benzo[d]oxazol-2-yl)-2,2′-dimethyl-[1,1′-biphenyl]-3-yl)benzo[d]oxazol-5-yl)methyl)-L-proline] | 118 | 8650 | 4 | 5.37 | 1.6 | –
3 | Cc1c(-c2nc3cc(CN4CCC[C@H]4C(=O)O)c(OC(F)F)cc3o2)cccc1-c1cccc(-c2nc3cc(CN4CCCC4(C)C)c(OC(F)F)cc3o2)c1C [Example 62, ((6-(difluoromethoxy)-2-(3′-(6-(difluoromethoxy)-5-((2,2-dimethylpyrrolidin-1-yl)methyl)benzo[d]oxazol-2-yl)-2,2′-dimethyl-[1,1′-biphenyl]-3-yl)benzo[d]oxazol-5-yl)methyl)-L-proline] | 46.5 | 4280 | 4 | 9.69 | 2.6 | –
4 | COC[C@@H]1CCCN1Cc1cc2nc(-c3cccc(-c4cccc(-c5nc6cc(CN7CCC[C@H]7C(=O)O)c(OC(F)F)cc6o5)c4C)c3C)oc2cc1OC(F)F [Example 63, ((6-(difluoromethoxy)-2-(3′-(6-(difluoromethoxy)-5-(((S)-2-(methoxymethyl)pyrrolidin-1-yl)methyl)benzo[d]oxazol-2-yl)-2,2′-dimethyl-[1,1′-biphenyl]-3-yl)benzo[d]oxazol-5-yl)methyl)-L-proline] | 43.7 | 2920 | 1 | 5.8 | 5.7 | –
5 | Cc1c(-c2nc3cc(CNC[C@@H]4CCCO4)c(OC(F)F)cc3o2)cccc1-c1cccc(-c2nc3cc(CN4CCC[C@H]4C(=O)O)c(OC(F)F)cc3o2)c1C [Example 64, ((6-(difluoromethoxy)-2-(3′-(6-(difluoromethoxy)-5-(((((S)-tetrahydrofuran-2-yl)methyl)amino)methyl)benzo[d]oxazol-2-yl)-2,2′-dimethyl-[1,1′-biphenyl]-3-yl)benzo[d]oxazol-5-yl)methyl)-L-proline] | 61.5 | 4320 | 7 | 7.2 | 1.8 | –
6 | Cc1c(-c2nc3cc(CN4CCC[C@H]4C(=O)O)c(OC(F)F)cc3o2)cccc1-c1cccc(-c2nc3cc(CN4CCCC4)c(OC(F)F)cc3o2)c1C#N [Example 65, ((2-(2′-cyano-3′-(6-(difluoromethoxy)-5-(pyrrolidin-1-ylmethyl)benzo[d]oxazol-2-yl)-2-methyl-[1,1′-biphenyl]-3-yl)-6-(difluoromethoxy)benzo[d]oxazol-5-yl)methyl)proline] | 40.4 | 2460 | 4 | 10.7 | 1.3 | –
7 | Cc1c(-c2nc3cc(CN4CC5(CC5)C4)c(OC(F)F)cc3o2)cccc1-c1cccc(-c2nc3cc(CN4CCC[C@H]4C(=O)O)c(OC(F)F)cc3o2)c1C [Example 74, ((2-(3′-(5-((5-azaspiro [2.3]hexan-5-yl)methyl)-6-(difluoromethoxy)benzo[d]oxazol-2-yl)-2,2′-dimethyl-[1,1′-biphenyl]-3-yl)-6-(difluoromethoxy)benzo[d]oxazol-5-yl)methyl)-L-proline] | 59.5 | 4460 | 4 | 8.2 | 1.1 | –
8 | Cc1c(-c2nc3cc(CN4CCC[C@H]4C(=O)O)c(OC(F)F)cc3o2)cccc1-c1cccc(-c2nc3cc(CN4CCC(C)C4)cc(C(F)(F)F)c3o2)c1C (stereo partly drawn) [Example 88, ((6-(difluoromethoxy)-2-(2,2′-dimethyl-3′-(5-((3-methylpyrrolidin-1-yl)methyl)-7-(trifluoromethyl)benzo[d]oxazol-2-yl)-[1,1′-biphenyl]-3-yl)benzo[d]oxazol-5-yl)methyl)-L-proline] | 2020 | 117000 | 24 | – | – | 0.1 to 5
9 | Cc1c(-c2nc3cc(CN4CCC[C@H]4C(=O)O)c(OC(F)F)cc3o2)cccc1-c1cccc(-c2nc3cc(CN4CC(C)(C)C4)cc(C(F)(F)F)c3o2)c1C [Example 93, ((6-(difluoromethoxy)-2-(3′-(5-((3,3-dimethylazetidin-1-yl)methyl)-7-(trifluoromethyl)benzo[d]oxazol-2-yl)-2,2′-dimethyl-[1,1′-biphenyl]-3-yl)benzo[d]oxazol-5-yl)methyl)-L-proline] | 163 | 9220 | 4 | – | – | 0.1 to 5
10 | Cc1c(-c2nc3cc(CN4CCC[C@H]4C(=O)O)c(OC(F)F)cc3o2)cccc1-c1cccc(-c2nc3cc(CN4CCCC4)cc(F)c3o2)c1C [Example 95, ((6-(difluoromethoxy)-2-(3′-(7-fluoro-5-(pyrrolidin-1-ylmethyl)benzo[d]oxazol-2-yl)-2,2′-dimethyl-[1,1′-biphenyl]-3-yl)benzo[d]oxazol-5-yl)methyl)-L-proline] | 22.9 | 2030 | 4 | 6.48 | 1.4 | –
11 | Cc1c(-c2nc3cc(CN4CCCC4)ccc3o2)cccc1-c1cccc(-c2nc3cc(CN4CCC[C@H]4C(=O)O)c(OC(F)F)cc3o2)c1C [Example 98, ((6-(difluoromethoxy)-2-(2,2′-dimethyl-3′-(5-(pyrrolidin-1-ylmethyl)benzo[d]oxazol-2-yl)-[1,1′-biphenyl]-3-yl)benzo[d]oxazol-5-yl)methyl)-L-proline] | 8.7 | 1010 | 1 | 4.47 | – | 0.1 to 5
12 | Cc1c(-c2nc3cc(CN4CCC[C@H]4C(=O)O)c(OC(F)F)cc3o2)cccc1-c1cccc(-c2nc3cc(CN4CCCC4)cc(C(F)(F)F)c3o2)c1C [Example 100, ((6-(difluoromethoxy)-2-(2,2′-dimethyl-3′-(5-(pyrrolidin-1-ylmethyl)-7-(trifluoromethyl)benzo[d]oxazol-2-yl)-[1,1′-biphenyl]-3-yl)benzo[d]oxazol-5-yl)methyl)-L-proline] | 235 | 18900 | 4 | 10.5 | – | 0.1 to 5
13 | Cc1c(-c2nc3ccc(CN4CCCC4)cc3o2)cccc1-c1cccc(-c2nc3cc(CN4CCC[C@H]4C(=O)O)c(OC(F)F)cc3o2)c1C [Example 108, ((6-(difluoromethoxy)-2-(2,2′-dimethyl-3′-(6-(pyrrolidin-1-ylmethyl)benzo[d]oxazol-2-yl)-[1,1′-biphenyl]-3-yl)benzo[d]oxazol-5-yl)methyl)-L-proline] | 10.1 | 713 | 1 | 21.7 | – | 0.1 to 5
